Key:
Human M3 receptor = target: T1, Human M3 receptor (Homo sapiens, UniProt P20309); assay: biochemical; assay type: binding; conditions: read-out: M3 Range
T1 construct: purchased Perkin Elmer

Human β2 adrenoceptor = target: T2, Human β2 adrenoceptor (Homo sapiens, UniProt P07550); assay: β2 adrenoceptor radioligand binding assay
T2 construct: purchased Perkin Elmer
How it was run: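 Human β2 receptor membranes incubated 1 h at room temperature with 0.3 nM [125I]cyanopindolol and compound in pH 7.4 HEPES buffer (0.5% DMSO); 2 μM s-propranolol defined non-specific binding. Bound label counted after filtration; IC50 from competition curves, converted to Ki via Cheng–Prusoff.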

T2 sequence (P07550 whole entry): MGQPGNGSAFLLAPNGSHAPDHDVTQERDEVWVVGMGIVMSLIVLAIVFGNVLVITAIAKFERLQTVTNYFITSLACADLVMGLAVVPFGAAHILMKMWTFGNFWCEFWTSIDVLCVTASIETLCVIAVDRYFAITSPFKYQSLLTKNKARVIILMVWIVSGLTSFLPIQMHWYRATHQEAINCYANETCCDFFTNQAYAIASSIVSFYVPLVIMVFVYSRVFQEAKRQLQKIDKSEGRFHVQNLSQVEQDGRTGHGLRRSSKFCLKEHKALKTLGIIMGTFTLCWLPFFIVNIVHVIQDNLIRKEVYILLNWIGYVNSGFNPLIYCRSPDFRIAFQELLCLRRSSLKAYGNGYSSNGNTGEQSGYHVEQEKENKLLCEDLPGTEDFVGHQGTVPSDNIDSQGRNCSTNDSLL
T1 sequence (P20309 whole entry): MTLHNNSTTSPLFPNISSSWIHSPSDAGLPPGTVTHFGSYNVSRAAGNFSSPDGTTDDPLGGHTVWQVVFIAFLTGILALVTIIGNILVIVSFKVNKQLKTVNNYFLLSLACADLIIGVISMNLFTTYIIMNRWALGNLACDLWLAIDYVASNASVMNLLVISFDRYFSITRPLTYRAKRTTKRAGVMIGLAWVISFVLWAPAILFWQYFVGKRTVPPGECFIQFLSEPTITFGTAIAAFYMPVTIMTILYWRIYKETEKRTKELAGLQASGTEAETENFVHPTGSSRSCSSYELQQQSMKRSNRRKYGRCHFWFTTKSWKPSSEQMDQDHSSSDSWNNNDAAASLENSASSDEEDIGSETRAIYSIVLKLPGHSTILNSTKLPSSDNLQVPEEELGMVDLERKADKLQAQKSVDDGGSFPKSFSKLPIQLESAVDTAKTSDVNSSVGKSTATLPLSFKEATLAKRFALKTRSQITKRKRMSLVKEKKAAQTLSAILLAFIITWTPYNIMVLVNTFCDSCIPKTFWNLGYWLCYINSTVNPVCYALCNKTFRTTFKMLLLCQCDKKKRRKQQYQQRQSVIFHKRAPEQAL

For `Cn1nc(C(=O)NCc2ccc(CNC[C@H](O)c3ccc(O)c4[nH]c(=O)ccc34)cc2)cc1-c1cccc([C@](O)(C(=O)OCC2CCN(Cc3ccccc3)CC2)c2ccccc2)c1` [Compound 14, (1-Benzylpiperidin-4-yl)methyl (S)-2-hydroxy-2-(3-(3-((4-((((R)-2-hydroxy-2-(8-hydroxy-2-oxo-1,2-dihydroquinolin-5-yl)ethyl)amino)methyl)-benzyl)carbamoyl)-1-methyl-1H-pyrazol-5-yl)phenyl)-2-phenylacetate], the IC50 (Human M3 receptor) was 0.3 to 3 nM and the IC50 (Human β2 adrenoceptor) was 0.3 to 3 nM.
Work on `O=C(NCc1ccc(-c2ccc([C@](O)(C(=O)OCC3CCN(Cc4ccccc4)CC3)c3ccccc3)cc2)s1)c1ccc(CNC[C@H](O)c2ccc(O)c3[nH]c(=O)ccc23)cc1` [Compound 15, (1-benzylpiperidin-4-yl)methyl (S)-2-hydroxy-2-(4-(5-((4-((((R)-2-hydroxy-2-(8-hydroxy-2-oxo-1,2-dihydroquinolin-5-yl)ethyl)amino)methyl)benzamido)methyl)-thiophen-2-yl)phenyl)-2-phenylacetate×2 HCOOH] yielded an IC50 (Human M3 receptor) of 0.3 to 3 nM and an IC50 (Human β2 adrenoceptor) of under 0.3 nM.
For `COc1cc(C(=O)NCc2ccc(-c3ccc([C@](O)(C(=O)OCC4CCN(Cc5ccccc5)CC4)c4ccccc4)cc3)s2)ccc1CNC[C@H](O)c1ccc(O)c2[nH]c(=O)ccc12` [Compound 15A, (1-benzylpiperidin-4-yl)methyl (S)-2-hydroxy-2-(4-(5-((4-((((R)-2-hydroxy-2-(8-hydroxy-2-oxo-1,2-dihydroquinolin-5-yl)ethyl)amino)methyl)-3-methoxybenzamido)methyl)thiophen-2-yl)phenyl)-2-phenylacetate], the IC50 (Human M3 receptor) was 0.3 to 3 nM and the IC50 (Human β2 adrenoceptor) was under 0.3 nM.
`O=C(NCc1cc(-c2ccc([C@](O)(C(=O)OCC3CCN(Cc4ccccc4)CC3)c3ccccc3)cc2)cs1)c1ccc(CNC[C@H](O)c2ccc(O)c3[nH]c(=O)ccc23)cc1` [Compound 15B, (1-benzylpiperidin-4-yl)methyl (S)-2-hydroxy-2-(4-(5-((4-((((R)-2-hydroxy-2-(8-hydroxy-2-oxo-1,2-dihydroquinolin-5-yl)ethyl)amino)methyl)-benzamido)methyl)thiophen-3-yl)phenyl)-2-phenylacetate] showed an IC50 (Human M3 receptor) of over 3 nM and an IC50 (Human β2 adrenoceptor) of 0.3 to 3 nM.
For `O=C(NCc1cnc(-c2ccc([C@](O)(C(=O)OCC3CCN(Cc4ccccc4)CC3)c3ccccc3)cc2)s1)c1ccc(CNC[C@H](O)c2ccc(O)c3[nH]c(=O)ccc23)cc1` [Compound 15C, (1-benzylpiperidin-4-yl)methyl (S)-2-hydroxy-2-(4-(5-((4-((((R)-2-hydroxy-2-(8-hydroxy-2-oxo-1,2-dihydroquinolin-5-yl)ethyl)amino)methyl)-benzamido)methyl)thiazol-2-yl)phenyl)-2-phenylacetate], the IC50 (Human M3 receptor) was 0.3 to 3 nM and the IC50 (Human β2 adrenoceptor) was under 0.3 nM.
For `O=C(NCc1ccc(-c2ccc([C@](O)(C(=O)OCC3CCN(Cc4ccccc4)CC3)c3ccccc3)cc2)cn1)c1ccc(CNC[C@H](O)c2ccc(O)c3[nH]c(=O)ccc23)cc1` [Compound 15D, (1-benzylpiperidin-4-yl)methyl (S)-2-hydroxy-2-(4-(6-((4-((((R)-2-hydroxy-2-(8-hydroxy-2-oxo-1,2-dihydroquinolin-5-yl)ethyl)amino)methyl)-benzamido)methyl)pyridin-3-yl)phenyl)-2-phenylacetate], the IC50 (Human M3 receptor) was 0.3 to 3 nM and the IC50 (Human β2 adrenoceptor) was under 0.3 nM.
For `O=C(c1ccc(CNC[C@H](O)c2ccc(O)c3[nH]c(=O)ccc23)cc1)N1CC=C(c2ccc([C@](O)(C(=O)OCC3CCN(Cc4ccccc4)CC3)c3ccccc3)cc2)CC1` [Compound 15E, (1-benzylpiperidin-4-yl)methyl (S)-2-hydroxy-2-(4-(1-(4-((((R)-2-hydroxy-2-(8-hydroxy-2-oxo-1,2-dihydroquinolin-5-yl)ethyl)amino)methyl)benzoyl)-1,2,3,6-tetrahydropyridin-4-yl)phenyl)-2-phenylacetate], the IC50 (Human M3 receptor) was 0.3 to 3 nM and the IC50 (Human β2 adrenoceptor) was under 0.3 nM.
With `COc1cc(C(=O)NCc2cc(-c3ccc([C@](O)(C(=O)OCC4CCN(Cc5ccccc5)CC4)c4ccccc4)cc3)cs2)ccc1CNC[C@H](O)c1ccc(O)c2[nH]c(=O)ccc12` [Compound 15F, (1-benzylpiperidin-4-yl)methyl (S)-2-hydroxy-2-(4-(5-((4-((((R)-2-hydroxy-2-(8-hydroxy-2-oxo-1,2-dihydroquinolin-5-yl)ethyl)amino)methyl)-3-methoxybenzamido)methyl)thiophen-3-yl)phenyl)-2-phenylacetate] the IC50 (Human M3 receptor) was 0.3 to 3 nM and the IC50 (Human β2 adrenoceptor) was under 0.3 nM.
`O=C(NCc1ccc(CCNC[C@H](O)c2ccc(O)c3[nH]c(=O)ccc23)cc1)c1ccc(-c2ccc([C@](O)(C(=O)OCC3CCN(Cc4ccccc4)CC3)c3ccccc3)cc2)s1` [Compound 16, (1-benzylpiperidin-4-yl)methyl (S)-2-hydroxy-2-(4-(5-((4-(2-(((R)-2-hydroxy-2-(8-hydroxy-2-oxo-1,2-dihydroquinolin-5-yl)ethyl)amino)ethyl)benzyl)-carbamoyl)thiophen-2-yl)phenyl)-2-phenylacetate×2 HCOOH] was tested, and the IC50 (Human M3 receptor) was over 3 nM and the IC50 (Human β2 adrenoceptor) was 0.3 to 3 nM.

Reference: patent publication US10196386B2, “Compounds having muscarinic receptor antagonist and beta2 adrenergic receptor agonist activity” (priority 2016, dated 2019)
